# Reference: US20240131046A1, “ANTI-VIRAL AGENT” (NATIONAL UNIVERSITY CORPORATION HOKKAIDO UNIVERSITY, priority 2021, published 2024)
# System: SARS-CoV-2 (strain WK-521) and various variants thereof
# Type: cell-based
compound,measurement,value
"Nc1ncnc2c1c(CO)cn2[C@@H]1O[C@H](CO)[C@@H](O)[C@H]1O [HUP1108, 5-hydroxymethyltubercidin]",virus amount released from infected cells / antiviral activity against variant strains,has antiviral activity against various variant strains of SARS-CoV-2
